# Molecular target: T1, CFTR in F508del/MF-HBE cells (Homo sapiens, UniProt P13569, DEL508-508)
# T1 construct: human bronchial epithelial (HBE) cells derived from CF subjects heterozygous for F508del and a minimal function CFTR mutation; endogenous in cells; host or cells: primary human bronchial epithelial cells from CF subjects (F508del/MF-HBE)
# Experiment: Ussing chamber assay of CFTR-mediated short-circuit currents (identification of potentiator compounds)
# Type: cell-based
# Settings: potentiator incubated 18-24 hours at 37° C. in combination with 10 μM corrector, in the presence of 20% human serum, CFTR-mediated ISC
# Summary of the method: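 Short-circuit current was measured in Ussing chambers at 37° C, Vhold 0 mV, 30 μM apical amiloride. CFTR current was defined as the forskolin (20 μM) response relative to the current remaining after BPO/GlyH-101/inhibitor 172 (20 μM each). Before recording, cells had 18-24 h exposure to test potentiators with 10 μM corrector compound in 20% human serum.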
# T1 sequence (P13569 with tags, fused parts or gaps DEL508-508): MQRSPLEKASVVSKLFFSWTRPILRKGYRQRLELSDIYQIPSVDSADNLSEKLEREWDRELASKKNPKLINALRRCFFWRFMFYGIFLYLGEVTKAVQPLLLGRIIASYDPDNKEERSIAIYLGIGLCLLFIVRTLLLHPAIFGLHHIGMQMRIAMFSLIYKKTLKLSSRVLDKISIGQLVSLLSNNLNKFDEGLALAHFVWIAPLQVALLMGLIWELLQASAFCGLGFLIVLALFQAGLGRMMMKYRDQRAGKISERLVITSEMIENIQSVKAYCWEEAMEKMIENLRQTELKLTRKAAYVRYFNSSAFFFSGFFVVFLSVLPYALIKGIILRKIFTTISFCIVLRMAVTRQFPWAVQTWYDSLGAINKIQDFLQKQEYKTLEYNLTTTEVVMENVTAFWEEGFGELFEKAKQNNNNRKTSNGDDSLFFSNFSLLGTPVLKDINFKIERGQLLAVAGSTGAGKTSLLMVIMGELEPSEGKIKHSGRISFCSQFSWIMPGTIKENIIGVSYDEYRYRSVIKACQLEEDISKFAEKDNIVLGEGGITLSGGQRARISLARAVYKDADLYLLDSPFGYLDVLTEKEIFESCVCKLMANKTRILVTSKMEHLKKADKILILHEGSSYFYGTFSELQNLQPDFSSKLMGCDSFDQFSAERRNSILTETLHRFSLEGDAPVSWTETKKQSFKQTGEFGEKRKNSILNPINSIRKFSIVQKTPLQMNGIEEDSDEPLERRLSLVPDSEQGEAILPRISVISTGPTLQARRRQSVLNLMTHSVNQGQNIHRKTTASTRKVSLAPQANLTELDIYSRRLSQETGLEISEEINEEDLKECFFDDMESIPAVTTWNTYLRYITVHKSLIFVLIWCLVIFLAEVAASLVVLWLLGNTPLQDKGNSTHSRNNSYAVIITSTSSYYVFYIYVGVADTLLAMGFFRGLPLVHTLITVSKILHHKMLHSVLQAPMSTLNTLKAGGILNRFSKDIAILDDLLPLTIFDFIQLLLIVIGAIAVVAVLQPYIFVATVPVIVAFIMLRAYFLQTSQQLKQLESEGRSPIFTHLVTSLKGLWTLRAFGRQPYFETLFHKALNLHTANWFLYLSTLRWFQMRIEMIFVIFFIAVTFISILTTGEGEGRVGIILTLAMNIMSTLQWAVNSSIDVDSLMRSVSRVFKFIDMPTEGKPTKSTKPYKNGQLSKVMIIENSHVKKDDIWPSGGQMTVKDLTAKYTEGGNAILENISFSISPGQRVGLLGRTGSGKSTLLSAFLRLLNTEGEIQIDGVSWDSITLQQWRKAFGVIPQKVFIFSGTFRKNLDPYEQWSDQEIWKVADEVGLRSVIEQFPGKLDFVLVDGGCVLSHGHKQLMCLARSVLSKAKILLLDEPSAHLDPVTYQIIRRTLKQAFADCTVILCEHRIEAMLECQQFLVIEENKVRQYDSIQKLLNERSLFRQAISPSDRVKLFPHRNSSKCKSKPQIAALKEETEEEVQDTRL
row,SMILES,EC50
1,"Nc1cc(C(F)(F)F)c2nc1-c1nnc(o1)C(O)(C(F)(F)F)CCCCNC2=O (single isomer, unassigned) [Compound 250, 16-amino-6-hydroxy-6,14-bis(trifluoromethyl)-18-oxa-3,4,11,17-tetrazatricyclo [11.3.1.12,5] octadeca-1(17),2,4,13,15-pentaen-12-one]",> 1 µM
2,"Cn1cc2c(n1)-c1nc(c(N)cc1C(F)(F)F)-c1nnc(o1)C(O)(C(F)(F)F)CCCCC2 (centres unmarked) [Compound 24, 20-Amino-14-methyl-6,18-bis(trifluoromethyl)-22-oxa-3,4,14,15,21-pentaazatetracyclo[15.3.1.12,5.012,16]docosa-1(21),2,4,12,15,17,19-heptaen-6-ol]",> 1 µM
3,"Nc1cc(C(F)(F)F)c2nc1-c1nnc(o1)[C@](O)(C(F)(F)F)CCCC(F)(F)CCC2=O [Compound 39, (6S)-17-amino-10,10-difluoro-6-hydroxy-6,15-bis(trifluoromethyl)-19-oxa-3,4,18-triazatricyclo[12.3.1.12,5]nonadeca-1(18),2,4,14,16-pentaen-13-one]",0.5 to 1 µM
4,"Nc1cc(C(F)(F)F)c2nc1-c1nnc(o1)C(O)(C(F)(F)F)CCCCN(Cc1ccccc1)C(=O)C2 (centres unmarked) [Compound 51, 17-amino-11-benzyl-6-hydroxy-6,15-bis(trifluoromethyl)-19-oxa-3,4,11,18-tetrazatricyclo[12.3.1.12,5]nonadeca-1(18),2,4,14,16-pentaen-12-one]",< 0.5 µM
5,"CC(C)N1CCCCC(O)(C(F)(F)F)C2=NN=C(O2)c2nc(c(C(F)(F)F)cc2N)CC1=O (centres unmarked) [Compound 52, 17-amino-6-hydroxy-11-isopropyl-6,15-bis(trifluoromethyl)-19-oxa-3,4,11,18-tetrazatricyclo[12.3.1.12,5]nonadeca-1(18),2,4,14,16-pentaen-12-one]",> 1 µM
6,"CN1CCCCC(O)(C(F)(F)F)C2=NN=C(O2)c2nc(c(C(F)(F)F)cc2N)CC1=O (centres unmarked) [Compound 53, 17-amino-6-hydroxy-11-methyl-6,15-bis(trifluoromethyl)-19-oxa-3,4,11,18-tetrazatricyclo[12.3.1.12,5]nonadeca-1(18),2,4,14,16-pentaen-12-one]",> 1 µM
7,"COC1CCCCc2ccc(F)c(c2)C(O)(C(F)(F)F)C2=NN=C(O2)c2nc1c(C(F)(F)F)cc2N (centres unmarked) [Compound 61, 20-Amino-8-fluoro-16-methoxy-6,18-bis(trifluoromethyl)-23-oxa-3,4,21-triazatetracyclo[15.3.1.12,5.17,11]tricosa-1(21),2,4,7(22),8,10,17,19-octaen-6-ol]",< 0.5 µM
8,"COC1CCCCc2ccc(F)c(c2)C(O)(C(F)(F)F)C2=NN=C(O2)c2nc1c(C(F)(F)F)cc2N (centres unmarked) [Compound 62, 20-Amino-8-fluoro-16-methoxy-6,18-bis(trifluoromethyl)-23-oxa-3,4,21-triazatetracyclo[15.3.1.12,5.17,11]tricosa-1(21),2,4,7(22),8,10,17,19-octaen-6-ol]",< 0.5 µM
9,"N#CC1CCCCc2cccc(c2)C(O)(C(F)(F)F)C2=NN=C(O2)c2nc1c(C(F)(F)F)cc2N (centres unmarked) [Compound 63, 20-amino-6-hydroxy-6,18-bis(trifluoromethyl)-23-oxa-3,4,21-triazatetracyclo[15.3.1.12,5.17,11]tricosa-1(21),2,4,7,9,11(22),17,19-octaene-16-carbonitrile]",< 0.5 µM
10,"N#CC1CCCCc2cccc(c2)C(O)(C(F)(F)F)C2=NN=C(O2)c2nc1c(C(F)(F)F)cc2N (centres unmarked) [Compound 64, 20-amino-6-hydroxy-6,18-bis(trifluoromethyl)-23-oxa-3,4,21-triazatetracyclo[15.3.1.12,5.17,11]tricosa-1(21),2,4,7,9,11(22),17,19-octaene-16-carbonitrile]",< 0.5 µM
11,"N#CC1CCCCc2ccc(F)c(c2)C(O)(C(F)(F)F)C2=NN=C(O2)c2nc1c(C(F)(F)F)cc2N (centres unmarked) [Compound 69, 20-Amino-8-fluoro-6-hydroxy-6,18-bis(trifluoromethyl)-23-oxa-3,4,21-triazatetracyclo[15.3.1.12,5.17,11]tricosa-1(21),2,4,7,9,11(22),17,19-octaene-16-carbonitrile]",< 0.5 µM
12,"COc1ccc(CN2CCCCC[C@](O)(C(F)(F)F)C3=NN=C(O3)c3nc(c(C(F)(F)F)cc3N)C2=O)cc1 [Compound 76, (6R)-17-Amino-6-hydroxy-12-[(4-methoxyphenyl)methyl]-6,15-bis (trifluoromethyl)-19-oxa-3,4,12,18-tetrazatricyclo [12.3.1.12,5] nonadeca-1(18),2,4,14,16-pentaen-13-one]",< 0.5 µM
13,"CC(C)(C)CN1CCCCC[C@](O)(C(F)(F)F)C2=NN=C(O2)c2nc(c(C(F)(F)F)cc2N)C1=O [Compound 80, (6R)-17-Amino-12-(2,2-dimethylpropyl)-6-hydroxy-6,15-bis (trifluoromethyl)-19-oxa-3,4,12,18-tetrazatricyclo [12.3.1.12,5] nonadeca-1(18),2,4,14,1 6-pentaen-13-one]",< 0.5 µM

# The remaining lines, values ahead:
row,EC50,SMILES
1,< 0.5 µM,"Nc1cc(C(F)(F)F)c2nc1-c1nnc(o1)[C@@](O)(C(F)(F)F)CCCCCCC2=O [Compound 6, (6R)-17-amino-6-hydroxy-6,15-bis(trifluoromethyl)-19-oxa-3,4,18-triazatricyclo[12.3.1.12,5]nonadeca-1(18),2,4,14,16-pentaen-13-one]"
2,< 0.5 µM,"Nc1cc(C(F)(F)F)c2nc1-c1nnc(o1)[C@@](O)(C(F)(F)F)CCCC(F)(F)CCC2=O [Compound 38, (6R)-17-amino-10,10-difluoro-6-hydroxy-6,15-bis(trifluoromethyl)-19-oxa-3,4,18-triazatricyclo[12.3.1.12,5]nonadeca-1(18),2,4,14,16-pentaen-13-one]"
3,< 0.5 µM,"Nc1cc(C(F)(F)F)c2nc1-c1nnc(o1)[C@@](O)(C(F)(F)F)CCC(F)(F)CCCC2=O [Compound 40, (6R)-17-amino-9,9-difluoro-6-hydroxy-6,15-bis(trifluoromethyl)-19-oxa-3,4,18-triazatricyclo[12.3.1.12,5]nonadeca-1(18),2,4,14,16-pentaen-13-one]"
4,< 0.5 µM,"Nc1cc(C(F)(F)F)c2nc1-c1nnc(o1)[C@](O)(C(F)(F)F)CCC(F)(F)CCCC2=O [Compound 41, (6S)-17-amino-9,9-difluoro-6-hydroxy-6,15-bis(trifluoromethyl)-19-oxa-3,4,18-triazatricyclo[12.3.1.12,5]nonadeca-1(18),2,4,14,16-pentaen-13-one]"
5,< 0.5 µM,"Nc1cc(C(F)(F)F)c2nc1-c1nnc(o1)[C@@](O)(C(F)(F)F)CCCC(=O)CCC2(F)F [Compound 42, (6R)-17-Amino-13,13-difluoro-6-hydroxy-6,15-bis(trifluoromethyl)-19-oxa-3,4,18-triazatricyclo[12.3.1.12,5]nonadeca-1(18),2,4,14,16-pentaen-10-one]"
6,< 0.5 µM,"Nc1cc(C(F)(F)F)c2nc1-c1nnc(o1)[C@@](O)(C(F)(F)F)CCC(=O)CCCC2(F)F [Compound 43, (6R)-17-amino-13,13-difluoro-6-hydroxy-6,15-bis(trifluoromethyl)-19-oxa-3,4,18-triazatricyclo[12.3.1.12,5]nonadeca-1(18),2,4,14,16-pentaen-9-one]"
7,< 0.5 µM,"Nc1cc(C(F)(F)F)c2nc1-c1nnc(o1)[C@@](O)(C(F)(F)F)CC(F)(F)CCCCC2=O [Compound 44, (6R)-17-amino-8,8-difluoro-6-hydroxy-6,15-bis(trifluoromethyl)-19-oxa-3,4,18-triazatricyclo[12.3.1.12,5]nonadeca-1(18),2,4,14,16-pentaen-13-one]"
8,< 0.5 µM,"CC1(C)CCCCC[C@](O)(C(F)(F)F)C2=NN=C(O2)c2nc(c(C(F)(F)F)cc2N)C1=O [Compound 45, (6R)-17-amino-6-hydroxy-12,12-dimethyl-6,15-bis(trifluoromethyl)-19-oxa-3,4,18-triazatricyclo[12.3.1.12,5]nonadeca-1(18),2,4,14,16-pentaen-13-one]"
9,< 0.5 µM,"CC1(C)CCCCC[C@@](O)(C(F)(F)F)C2=NN=C(O2)c2nc(c(C(F)(F)F)cc2N)C1=O [Compound 46, (6S)-17-amino-6-hydroxy-12,12-dimethyl-6,15-bis(trifluoromethyl)-19-oxa-3,4,18-triazatricyclo[12.3.1.12,5]nonadeca-1(18),2,4,14,16-pentaen-13-one]"
10,< 0.5 µM,"CC1(C)CCCC[C@](O)(C(F)(F)F)C2=NN=C(O2)c2nc(c(C(F)(F)F)cc2N)C(=O)C1 [Compound 47, (6R)-17-amino-6-hydroxy-11,11-dimethyl-6,15-bis(trifluoromethyl)-19-oxa-3,4,18-triazatricyclo[12.3.1.12,5]nonadeca-1(18),2,4,14,16-pentaen-13-one]"
11,< 0.5 µM,"Nc1cc(C(F)(F)F)c2nc1-c1nnc(o1)[C@@](O)(C(F)(F)F)CCCCCC1(CCC1)C2=O [Compound 48, (6R)-17-amino-6-hydroxy-6,15-bis(trifluoromethyl)spiro[19-oxa-3,4,18-triazatricyclo[12.3.1.12,5]nonadeca-1(18),2,4,14,16-pentaene-12,1′-cyclobutane]-13-one]"
12,< 0.5 µM,"Nc1cc(C(F)(F)F)c2nc1-c1nnc(o1)[C@@](O)(C(F)(F)F)CCCCCC1(CC1)C2=O [Compound 49, (6R)-17-amino-6-hydroxy-6,15-bis(trifluoromethyl)spiro[19-oxa-3,4,18-triazatricyclo[12.3.1.12,5]nonadeca-1(18),2,4,14,16-pentaene-12,1′-cyclopropane]-13-one]"
13,< 0.5 µM,"CC1(C)CCCCC[C@](O)(C(F)(F)F)C2=NN=C(O2)c2nc(c(C(F)(F)F)cc2N)C1 [Compound 50, (6R)-17-amino-12,12-dimethyl-6,15-bis(trifluoromethyl)-19-oxa-3,4,18-triazatricyclo[12.3.1.12,5]nonadeca-1(18),2,4,14,16-pentaen-6-ol]"
